What all share (type): biochemical
One experiment has as its target T1, Neutral endopeptidase (Oryctolagus cuniculus, UniProt P08049).
T1 construct: Neutral endopeptidase is purified from rabbit kidney; from tissue; host or cells: rabbit kidney
T1 sequence (P08049 1-750): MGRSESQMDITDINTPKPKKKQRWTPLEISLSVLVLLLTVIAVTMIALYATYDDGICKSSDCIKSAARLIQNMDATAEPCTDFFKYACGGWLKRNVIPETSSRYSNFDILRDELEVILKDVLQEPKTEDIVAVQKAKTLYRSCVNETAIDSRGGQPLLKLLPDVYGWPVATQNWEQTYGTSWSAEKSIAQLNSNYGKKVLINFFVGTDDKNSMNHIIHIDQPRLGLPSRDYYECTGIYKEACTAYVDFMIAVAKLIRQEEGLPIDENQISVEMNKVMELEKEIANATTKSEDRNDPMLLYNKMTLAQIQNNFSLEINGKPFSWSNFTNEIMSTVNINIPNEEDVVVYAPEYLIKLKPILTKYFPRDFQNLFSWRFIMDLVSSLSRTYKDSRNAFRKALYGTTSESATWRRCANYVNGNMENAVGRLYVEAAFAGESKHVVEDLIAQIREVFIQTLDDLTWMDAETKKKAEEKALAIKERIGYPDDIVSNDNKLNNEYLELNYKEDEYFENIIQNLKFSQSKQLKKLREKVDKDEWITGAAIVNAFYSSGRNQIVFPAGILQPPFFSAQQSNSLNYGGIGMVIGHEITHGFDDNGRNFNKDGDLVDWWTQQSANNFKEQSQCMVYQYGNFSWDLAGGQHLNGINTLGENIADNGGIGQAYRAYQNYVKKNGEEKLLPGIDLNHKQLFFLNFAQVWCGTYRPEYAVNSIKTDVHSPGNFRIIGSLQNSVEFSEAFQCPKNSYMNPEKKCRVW
The experiment in a line: Inhibition of neutral endopeptidase (fluorescent substrate DGNPA). As to conditions: NEP purified from rabbit kidney. The source says: Neutral endopeptidase is purified from rabbit kidney according to the procedure described by Aubry et al. (Biochem. Cell Biol., 1987, 65, pp. 1037-1042).

Experiment [1] addresses T2, angiotensin I converting enzyme (ACE) (Rattus norvegicus, UniProt P47820).
T2 construct: ACE is purified from rat testicle; from tissue; host or cells: rat testicle
T2 sequence (P47820 1-775 isoform P47820-2): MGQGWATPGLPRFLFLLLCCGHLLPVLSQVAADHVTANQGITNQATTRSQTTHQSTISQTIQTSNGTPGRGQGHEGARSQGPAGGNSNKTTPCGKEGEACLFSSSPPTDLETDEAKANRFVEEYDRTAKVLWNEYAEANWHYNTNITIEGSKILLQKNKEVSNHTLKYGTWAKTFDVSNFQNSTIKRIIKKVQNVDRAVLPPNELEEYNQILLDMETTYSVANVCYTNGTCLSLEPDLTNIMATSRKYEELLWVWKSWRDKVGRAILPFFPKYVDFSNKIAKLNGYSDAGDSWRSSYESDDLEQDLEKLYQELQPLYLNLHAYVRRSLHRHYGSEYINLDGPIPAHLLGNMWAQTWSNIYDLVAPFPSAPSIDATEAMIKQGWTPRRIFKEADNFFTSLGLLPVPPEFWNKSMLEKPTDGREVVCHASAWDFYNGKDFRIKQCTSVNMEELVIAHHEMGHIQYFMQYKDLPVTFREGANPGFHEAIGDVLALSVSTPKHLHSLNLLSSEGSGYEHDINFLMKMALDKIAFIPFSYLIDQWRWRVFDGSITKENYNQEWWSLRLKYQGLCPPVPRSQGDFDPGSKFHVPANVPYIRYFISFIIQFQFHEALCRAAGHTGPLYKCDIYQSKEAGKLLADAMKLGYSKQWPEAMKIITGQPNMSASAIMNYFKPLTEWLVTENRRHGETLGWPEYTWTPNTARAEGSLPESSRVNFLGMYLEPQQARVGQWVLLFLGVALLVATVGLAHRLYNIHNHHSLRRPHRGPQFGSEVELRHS
The experiment can be described thus: Inhibition of angiotensin I converting enzyme (substrate N-Cbz-Phe-His-Leu). The settings on record: ACE purified from rat testicle. On the procedure: ACE is purified from rat testicle according to the procedure described by Pantaliano et al. (Biochemistry, 1984, 23, pp. 1037-1042).
The enzyme activity is measured using the synthetic substrate N-Cbz-Phe-His-Leu, Km=[…] (Piquilloud Y. et al., Biochem. Biophys. Acta, 1970, 206, pp. 136-142).

The target of another experiment is T3, ECE-1c (Homo sapiens, UniProt P42892).
T3 construct: made in house; host or cells: Cos-7 cells (pcDNA3 vector, electroporation); membrane fraction extracted with 1% beta-octylglucose
T3 sequence (P42892 1-754 isoform P42892-3): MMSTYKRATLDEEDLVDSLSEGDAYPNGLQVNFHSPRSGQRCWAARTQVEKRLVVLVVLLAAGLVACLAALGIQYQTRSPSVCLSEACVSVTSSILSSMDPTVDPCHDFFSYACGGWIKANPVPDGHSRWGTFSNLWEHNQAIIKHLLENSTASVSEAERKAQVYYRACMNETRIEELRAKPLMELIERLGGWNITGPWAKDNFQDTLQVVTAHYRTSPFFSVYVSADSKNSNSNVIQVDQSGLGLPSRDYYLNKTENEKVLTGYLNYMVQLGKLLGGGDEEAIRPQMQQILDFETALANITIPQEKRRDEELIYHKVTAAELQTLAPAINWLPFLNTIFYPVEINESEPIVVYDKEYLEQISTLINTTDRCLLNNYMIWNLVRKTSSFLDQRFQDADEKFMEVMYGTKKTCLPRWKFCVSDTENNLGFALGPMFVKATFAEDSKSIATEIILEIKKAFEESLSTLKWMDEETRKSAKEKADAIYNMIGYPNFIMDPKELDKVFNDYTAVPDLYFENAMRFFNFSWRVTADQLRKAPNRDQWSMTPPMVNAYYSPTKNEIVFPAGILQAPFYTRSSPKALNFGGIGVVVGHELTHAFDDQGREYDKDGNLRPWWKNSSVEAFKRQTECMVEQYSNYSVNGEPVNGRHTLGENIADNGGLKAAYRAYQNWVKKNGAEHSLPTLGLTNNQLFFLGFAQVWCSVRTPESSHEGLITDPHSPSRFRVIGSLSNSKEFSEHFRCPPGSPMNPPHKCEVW
The experiment can be described thus: Inhibition of endothelin converting enzyme (radiolabelled BigET-1 (19-35) substrate). As to conditions: ECE-1c expressed in Cos-7 cells; preincubated 10 minutes at 37° C., pH 6.5; read-out: Ki, inhibition of big endothelin converting enzyme. On the procedure:
The cDNA of ECE-1c (membrane form of the enzyme, Biochem. J., 1997, 328, pp. 871-877), was inserted into a pcDNA3 eucaryotic expression vector and then transfected by electroporation and expressed in Cos-7 cells.
To measure the ECE activity, the cells are homogenised and the membrane fraction is recovered. The enzyme is extracted by dissolution in β-octylglucose (1%).
The peptide BigET-1 (19-35) was prepared by solid phase synthesis in Fmoc chemistry and purified by semi-preparative HPLC. The propionylation of the peptide was effected by the action of N-succinimidyl-[2,3-^3H]-propionate on the peptide BigET-1 (19-35) and the radiolabelled product was purified by HPLC. The specific activity of the substrate is 97 Ci/mmole.
ECE-1c (10 μl of a solution diluted to 1/10) is dissolved in 400 μl of Trismaleate 50 mM, pH 6.5, in the presence of 250 mM NaCl. The reaction is initiated by the addition of 10 μl of the radioactive substrate (final concentration 1×10^−9 M). After incubation for 1 hour at 37° C., the reaction is stopped by the addition of 600 μl of ethyl acetate. The metabolite is separated from the intact substrate by liquid—liquid extraction. The radioactivity of the metabolite is determined by liquid scintillation. The kinetic constants of the substrate are: Km=[…] and Vmax=2.98±0.24 mmol/mg. prot./min.
The controls of 0% and 100% degradation are obtained, respectively, by incubation of the substrate with the inactivated enzyme and with the native enzyme in the absence of inhibitors.

The Ki is the dissociation constant of the complex between target and ligand, obtained from inhibition or displacement.

In the case of `O=C(N[C@@H](Cc1c[nH]c2ccccc12)C(=O)O)C(CS)C1CCc2cc(Br)ccc21` (stereo partly drawn) [13 (2S-3R-4S), N-[2-(5-Bromo-2,3-dihydro-1H-inden-1-yl)-3-mercaptopropanoyl]-tryptophan], the results for the Ki (on Neutral endopeptidase; in experiment [1]; at ECE-1c) were 3.28 ± 0.35 nM, 4.09 ± 0.49 nM and 24.4 ± 1.4 nM, respectively.

For `O=C(N[C@@H](Cc1c[nH]c2c1ccc1cccnc12)C(=O)O)C(CS)C1CCc2cc(Br)ccc21` (stereo partly drawn) [63 (2S-3R-4S), N-[2-(5-Bromo-2,3-dihydro-1H-inden-1-yl)-3-mercaptopropanoyl]-3-(1H-pyrrolo[3,2-h]quinolin-3-yl)alanine], the figures for the Ki (on Neutral endopeptidase; in experiment [1]; at ECE-1c) were 10.2 ± 0.3 nM, 3.7 ± 0.38 nM and 21.2 ± 2.5 nM, respectively.

With `O=C(N[C@@H](Cc1c[nH]c2ncccc12)C(=O)O)C(CS)C1CCc2cc(Br)ccc21` (stereo partly drawn) [33 (2S-3R-4S), N-[2-(5-Bromo-2,3-dihydro-1H-inden-1-yl)-3-mercaptopropanoyl]-3-(1H-pyrrolo [2,3-b]pyridin-3-yl)alanine], the inhibition constant (Ki) amounted to 2.91 ± 0.67 nM on Neutral endopeptidase, 1.32 ± 0.17 nM in experiment [1] and 23.3 ± 3.2 nM at ECE-1c.

Source of the values: US6716852B2, “Amino acid derivatives and use thereof as NEP, ACE and ECE inhibitors” (Les Laboratories Servier, priority 2000, dated 2004).
